Structures can show the parent of a compound that is named as a salt.
Assays:
[1] = biological target: T1, human factor XIa (Homo sapiens, UniProt P03951); experiment: Measurement of FXIa inhibition (fluorogenic peptide substrate Boc-Glu(OBzl)-Ala-Arg-AMC); format: biochemical; conditions: factor XIa from Kordia, 15 min preincubation, 30 min at 22° C., fluorescence
T1 construct: purchased Kordia
In short: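 Released AMC fluorescence (360/460 nm) read after 30 min at 22 °C. The reaction was started with Boc-Glu(OBzl)-Ala-Arg-AMC (10 μM stock) after a 15 min preincubation of the enzyme (0.45 nM stock) with compound (final 50 μM to 0.00013 μM).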

[2] = tested on: human and animal plasma; experiment: Determination of anticoagulatory activity: activated partial thromboplastin time (aPTT) in plasma; conditions: concentration of test substance which brings about a 1.5-fold extension of the aPTT; plasma species not given
In short: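 Citrated plasma (1:9, 0.11 M citrate; 4000 g, 15 min) from human or animal blood incubated with test compound and cephalin/kaolin PTT reagent for 3 min at 37° C.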

T1 sequence (P03951 388-625 limits assumed): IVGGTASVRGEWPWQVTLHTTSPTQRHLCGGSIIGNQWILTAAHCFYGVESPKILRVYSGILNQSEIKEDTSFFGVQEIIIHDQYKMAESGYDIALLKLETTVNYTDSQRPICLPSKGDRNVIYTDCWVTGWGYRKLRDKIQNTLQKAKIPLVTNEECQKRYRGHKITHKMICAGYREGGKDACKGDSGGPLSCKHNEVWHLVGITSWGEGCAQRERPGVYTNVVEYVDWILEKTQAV
T1 sequence (P03951 19-387 partner limits assumed): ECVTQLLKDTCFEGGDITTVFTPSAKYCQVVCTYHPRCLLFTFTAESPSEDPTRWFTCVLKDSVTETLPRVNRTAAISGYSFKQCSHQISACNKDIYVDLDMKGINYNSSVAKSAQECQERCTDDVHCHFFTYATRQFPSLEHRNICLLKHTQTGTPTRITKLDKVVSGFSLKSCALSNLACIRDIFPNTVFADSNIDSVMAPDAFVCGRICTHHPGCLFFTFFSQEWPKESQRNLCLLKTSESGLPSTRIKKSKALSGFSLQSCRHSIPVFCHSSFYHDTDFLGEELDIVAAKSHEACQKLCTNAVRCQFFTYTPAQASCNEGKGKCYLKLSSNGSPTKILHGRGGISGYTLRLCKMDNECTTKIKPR

Compound	IC50 [1]	aPTT [2]
Cc1cc(C(=O)N[C@@H]2C[C@@H](CO)NC2=O)ccc1-c1ccc(C[C@H](NC(=O)[C@H]2CC[C@H](CN)CC2)C(=O)Nc2ccc(-c3nc(C(F)(F)C(F)(F)C(=O)O)n[nH]3)cc2)cc1 [Example 106, 3-[5-(4-{[(2S)-2-({[trans-4-(Aminomethyl)cyclohexyl]carbonyl}amino)-3-(4′-{[(3R,5S)-5-(hydroxymethyl)-2-oxopyrrolidin-3-yl]carbamoyl}-2′-methylbiphenyl-4-yl)propanoyl]amino}-phenyl)-1H-1,2,4-triazol-3-yl]-2,2,3,3-tetrafluoropropanoic acid hydrochloride]	1.1 nM	0.11 µmol/L
NC[C@H]1CC[C@H](C(=O)N[C@@H](Cc2ccc(-c3ccc(C(=O)NC4CCNCC4)cc3)cc2)C(=O)Nc2ccc(-c3nn[nH]n3)cc2)CC1 [Example 37, 4′-[(2S)-2-({[trans-4-(Aminomethyl)cyclohexyl]carbonyl}amino)-3-oxo-3-{[4-(2H-tetrazol-5-yl)phenyl]amino}propyl]-N-(piperidin-4-yl)biphenyl-4-carboxamide hydrochloride]	8.5 nM	0.12 µmol/L
NC[C@H]1CC[C@H](C(=O)N[C@@H](Cc2ccc(-c3ccc(C(=O)N[C@@H]4CCNC4)cc3)cc2)C(=O)Nc2ccc(-c3nn[nH]n3)cc2)CC1 [Example 39, 4′-[(2S)-2-({[trans-4-(Aminomethyl)cyclohexyl]carbonyl}amino)-3-oxo-3-{[4-(2H-tetrazol-5-yl)phenyl]amino}propyl]-N-[(3R)-pyrrolidin-3-yl]biphenyl-4-carboxamide hydrochloride]	9.8 nM	0.1 µmol/L
Cc1cc(C(=O)NCCCN(C)C)ccc1-c1ccc(C[C@H](NC(=O)[C@H]2CC[C@H](CN)CC2)C(=O)Nc2ccc3[nH]c(C(F)(F)C(F)(F)F)nc3c2)cc1 [Example 81, 4′-[(2S)-2-({[trans-4-(Aminomethyl)cyclohexyl]carbonyl}amino)-3-oxo-3-{[2-(pentafluoroethyl)-1H-benzimidazol-5-yl]amino}propyl]-N-[3-(dimethylamino)propyl]-2-methylbiphenyl-4-carboxamide hydrochloride]	22 nM	0.41 µmol/L
Cc1cc(C(=O)N[C@@H]2C[C@@H](CO)NC2=O)ccc1-c1ccc(C[C@H](NC(=O)[C@H]2CC[C@H](CN)CC2)C(=O)Nc2ccc3[nH]c(=O)[nH]c3c2)cc1 [Example 97, 4′-{(2S)-2-({[trans-4-(Aminomethyl)cyclohexyl]carbonyl}amino)-3-oxo-3-[(2-oxo-2,3-dihydro-1H-benzimidazol-5-yl)amino]propyl}-N-[(3R,5S)-5-(hydroxymethyl)-2-oxopyrrolidin-3-yl]-2-methylbiphenyl-4-carboxamide hydrochloride]	3.2 nM	0.06 µmol/L
Cc1cc(C(=O)N2CCNCC2)ccc1-c1ccc(C[C@H](NC(=O)[C@H]2CC[C@H](CN)CC2)C(=O)Nc2ccc(-c3nn[nH]n3)cc2)cc1 [Example 16, trans-4-(Aminomethyl)-N-[(2S)-3-[2′-methyl-4′-(piperazin-1-ylcarbonyl)biphenyl-4-yl]-1-oxo-1-{[4-(2H-tetrazol-5-yl)phenyl]amino}propan-2-yl]cyclohexanecarboxamide hydrochloride]	3.9 nM	0.23 µmol/L
Cc1cc(C(=O)NC2CCNCC2)ccc1-c1ccc(C[C@H](NC(=O)[C@H]2CC[C@H](CN)CC2)C(=O)Nc2ccc3nc(C(F)(F)F)[nH]c3c2)cc1 [Example 52, 4′-[(2S)-2-({[trans-4-(Aminomethyl)cyclohexyl]carbonyl}amino)-3-oxo-3-{[2-(trifluoromethyl)-1H-benzimidazol-6-yl]amino}propyl]-2-methyl-N-(piperidin-4-yl)biphenyl-4-carboxamide hydrochloride]	14 nM	0.2 µmol/L
CCN(CC)CCCNC(=O)c1ccc(-c2ccc(C[C@H](NC(=O)[C@H]3CC[C@H](CN)CC3)C(=O)Nc3ccc(-c4nn[nH]n4)cc3)cc2)c(C)c1 [Example 29, 4′-[(2S)-2-({[trans-4-(Aminomethyl)cyclohexyl]carbonyl}amino)-3-oxo-3-{[4-(2H-tetrazol-5-yl)phenyl]amino}propyl]-N-[3-(diethylamino)propyl]-2-methylbiphenyl-4-carboxamide hydrochloride]	3 nM	0.14 µmol/L
Cc1cc(C(=O)NC2CC3CCC(C2)N3C)ccc1-c1ccc(C[C@H](NC(=O)C2CCC(CN)CC2)C(=O)Nc2ccc(-c3nn[nH]n3)cc2)cc1 (stereo partly drawn) [Example 44, 4′-[(2S)-2-({[trans-4-(Aminomethyl)cyclohexyl]carbonyl}amino)-3-oxo-3-{[4-(2H-tetrazol-5-yl)phenyl]amino}propyl]-2-methyl-N-(8-methyl-8-azabicyclo[3.2.1]oct-3-yl)biphenyl-4-carboxamide hydrochloride]	5.7 nM	0.11 µmol/L
Cc1cc(C(=O)NC2CCNC(C)C2)ccc1-c1ccc(C[C@H](NC(=O)[C@H]2CC[C@H](CN)CC2)C(=O)Nc2ccc(-c3nn[nH]n3)cc2)cc1 (stereo partly drawn) [Example 32, 4′-[(2S)-2-({[trans-4-(Aminomethyl)cyclohexyl]carbonyl}amino)-3-oxo-3-{[4-(2H-tetrazol-5-yl)phenyl]amino}propyl]-2-methyl-N-(2-methylpiperidin-4-yl)biphenyl-4-carboxamide hydrochloride]	3.4 nM	0.09 µmol/L
Cc1cc(C(=O)N[C@@H]2CCNC2)ccc1-c1ccc(C[C@H](NC(=O)[C@H]2CC[C@H](CN)CC2)C(=O)Nc2ccc3[nH]c(C(F)(F)C(F)(F)F)nc3c2)cc1 [Example 80, 4′-[(2S)-2-({[trans-4-(Aminomethyl)cyclohexyl]carbonyl}amino)-3-oxo-3-{[2-(pentafluoroethyl)-1H-benzimidazol-5-yl]amino}propyl]-2-methyl-N-[(3R)-pyrrolidin-3-yl]biphenyl-4-carboxamide hydrochloride]	17 nM	0.41 µmol/L
COCCOCCOCCOCCNC(=O)c1ccc(-c2ccc(C[C@H](NC(=O)[C@H]3CC[C@H](CN)CC3)C(=O)Nc3ccc4c(=O)[nH][nH]c4c3)cc2)c(C)c1 [Example 28, 4′-{(2S)-2-({[trans-4-(Aminomethyl)cyclohexyl]carbonyl}amino)-3-oxo-3-[(3-oxo-2,3-dihydro-1H-indazol-6-yl)amino]propyl}-2-methyl-N-(2,5,8,11-tetraoxatridecan-13-yl)biphenyl-4-carboxamide hydrochloride]	14 nM	0.33 µmol/L
CCN(CC)CCNC(=O)c1ccc(-c2ccc(C[C@H](NC(=O)[C@H]3CC[C@H](CN)CC3)C(=O)Nc3ccc(-c4nn[nH]n4)cc3)cc2)cc1 [Example 38, 4′-[(2S)-2-({[trans-4-(Aminomethyl)cyclohexyl]carbonyl}amino)-3-oxo-3-{[4-(2H-tetrazol-5-yl)phenyl]amino}propyl]-N-{2-[diethylamino]ethyl}biphenyl-4-carboxamide hydrochloride]	14 nM	0.42 µmol/L
Cc1cc(C(=O)NC2CCNCC2)ccc1-c1ccc(C[C@H](NC(=O)[C@H]2CC[C@H](CN)CC2)C(=O)Nc2ccc(-c3nn[nH]n3)cc2)cc1F [Example 61, 4′-[(2S)-2-({[trans-4-(Aminomethyl)cyclohexyl]carbonyl}amino)-3-oxo-3-{[4-(2H-tetrazol-5-yl)phenyl]amino}propyl]-2′-fluoro-2-methyl-N-(piperidin-4-yl)biphenyl-4-carboxamide hydrochloride]	3.2 nM	0.07 µmol/L
NC[C@H]1CC[C@H](C(=O)N[C@@H](Cc2ccc(-c3ccc(C(=O)N[C@H]4CC[C@H](O)CC4)c(F)c3)cc2)C(=O)Nc2ccc(-c3n[nH]c(C(F)(F)C(F)(F)C(=O)O)n3)cc2)CC1 [Example 112, 3-[3-(4-{[(2S)-2-({[trans-4-(Aminomethyl)cyclohexyl]carbonyl}amino)-3-{3′-fluoro-4′-[(trans-4-hydroxycyclohexyl)carbamoyl]biphenyl-4-yl}propanoyl]amino}phenyl)-1H-1,2,4-triazol-5-yl]-2,2,3,3-tetrafluoropropanoic acid hydrochloride]	2 nM	0.17 µmol/L
Cc1cc(C(=O)NC2CCN(C)CC2)ccc1-c1ccc(C[C@H](NC(=O)[C@H]2CC[C@H](CN)CC2)C(=O)Nc2ccc3[nH]c(C(F)(F)F)nc3c2)cc1 [Example 76, 4′-[(2S)-2-({[trans-4-(Aminomethyl)cyclohexyl]carbonyl}amino)-3-oxo-3-{[2-(trifluoromethyl)-1H-benzimidazol-5-yl]amino}propyl]-2-methyl-N-(1-methylpiperidin-4-yl)biphenyl-4-carboxamide hydrochloride]	25 nM	0.37 µmol/L
Cc1cc(C(=O)NC2CCN(C(C)C)CC2)ccc1-c1ccc(C[C@H](NC(=O)[C@H]2CC[C@H](CN)CC2)C(=O)Nc2ccc(-c3nn[nH]n3)cc2)cc1 [Example 40, 4′-[(2S)-2-({[trans-4-(Aminomethyl)cyclohexyl]carbonyl}amino)-3-oxo-3-{[4-(2H-tetrazol-5-yl)phenyl]amino}propyl]-N-(1-isopropylpiperidin-4-yl)-2-methylbiphenyl-4-carboxamide hydrochloride]	3.6 nM	0.11 µmol/L
Cc1cc(-c2ccc(C[C@H](NC(=O)[C@H]3CC[C@H](CN)CC3)C(=O)Nc3ccc(-c4nnn[nH]4)cc3)cc2)ccc1C(=O)NC1CC1 [Example 95, 4′-[(2S)-2-({[trans-4-(Aminomethyl)cyclohexyl]carbonyl}amino)-3-oxo-3-{[4-(1H-tetrazol-5-yl)phenyl]amino}propyl]-N-cyclopropyl-3-methylbiphenyl-4-carboxamide hydrochloride]	2.4 nM	0.33 µmol/L
